The values below come from patent US10214546B2, “Btk inhibitors” (MERCK SHARP & DOHME CORP., priority 2014, dated 2019).

For assay [1], the target named is BTK enzyme (recombinant full-length BTK, hBTK) (Homo sapiens (Human), UniProt Q06187). The experiment in a line: BTK enzymatic activity LANCE TR-FRET assay. The assay is classed as biochemical. The following applies: 50 pM hBTK, 25 μM ATP, 2 μM biotin-A5-peptide; compound range 1 μM to 0.017 nM; read-out: BTK binding IC50. The procedure:
Btk Enzyme Activity Assay Methods
BTK enzymatic activity was determined with the LANCE (Lanthanide Chelate Excite) TR-FRET (Time-resolved fluorescence resonance energy transfer) assay. […] Phosphorylation reactions were allowed to proceed for 120 minutes. […] After 60 minutes incubation with detection reagents, reaction plates were read on a PerkinElmer EnVision plate reader using standard TR-FRET protocol. […] IC50 values were determined by 4 parameter robust fit of TR-FRET ratio values vs. (Log10) compound concentrations.
On the technique in general: In TR-FRET formats the signal depends on donor and acceptor labels being close together.

The test system of assay [2] is adenosine uptake into HeLa cells. Put plainly: [3H]Adenosine uptake assay in HeLa cells. The assay is classed as cell-based. Conditions: [3H]adenosine accumulation in HeLa cells, compound range 10 μM to 0.032 nM, read-out: ADU inhibition IC50. On the procedure:
Compounds are also screened in an adenosine uptake functional cellular assay using the protocol described below:
[^3H]Adenosine Uptake Assay Methods
Adenosine uptake activity was determined by monitoring the accumulation of tritiated adenosine into HeLa cells (ATCC catalog # CCL-2) using a PMT-based radiometric detection instrument. In this assay, the potency (IC50) of each compound was determined from a ten point (1:3 serial dilution; final compound concentration range in assay from 10 µM to […]) titration curve using the following outlined procedure. To each well of a 96-well CytoStar-T scintillating microplate (Perkin Elmer Catalog # RPNQ0163), 25 000 HeLa cells in 100 µL of growth medium comprising: Minimum Essential Media (Life Technologies Catalog #11095-080)+10% (v/v) foetal bovine serum (FBS; Sigma Aldrich Catalog # F2442) was added. These cells were incubated overnight at 37° C. in a humidified atmosphere with 5% (v/v) CO2. After this time the growth medium was removed and replaced with 40 μL assay medium comprising: Hanks balanced salts solution (HBSS; Thermo Fisher Catalog # SH30268.01)+5% (v/v) FBS. Compound stock solutions in DMSO were diluted in assay medium to 2.5× final compound concentration maintaining a constant DMSO concentration of 0.25% (v/v). 40 μL of compound in assay medium was dispensed into individual wells of the Cytostar-T plates and the plates were incubated for 30 minutes under ambient laboratory conditions. Following this incubation, 20 μL of 500 nM [^3H] adenosine (American Radiolabeled Chemicals Inc. […] The amount of radiolabel accumulation was then determined using a Perkin Elmer Topcount NXT microplate reader. In brief, HeLa cells adhere to the bottom of the Cytostar-T plate, uptake of [^3H]adenosine into these cells brings the radiolabel into sufficient proximity to excite the scintillant in the base of the plates. These events are captured by single PMT, time-resolved coincidence counting. IC50 values were determined by 4 parameter robust fit of counts per second values vs. (Log10) compound concentrations.

Read-outs that look alike come from different tables or passages of the source.

Chain of BTK enzyme (recombinant full-length BTK, hBTK) (Q06187 whole entry): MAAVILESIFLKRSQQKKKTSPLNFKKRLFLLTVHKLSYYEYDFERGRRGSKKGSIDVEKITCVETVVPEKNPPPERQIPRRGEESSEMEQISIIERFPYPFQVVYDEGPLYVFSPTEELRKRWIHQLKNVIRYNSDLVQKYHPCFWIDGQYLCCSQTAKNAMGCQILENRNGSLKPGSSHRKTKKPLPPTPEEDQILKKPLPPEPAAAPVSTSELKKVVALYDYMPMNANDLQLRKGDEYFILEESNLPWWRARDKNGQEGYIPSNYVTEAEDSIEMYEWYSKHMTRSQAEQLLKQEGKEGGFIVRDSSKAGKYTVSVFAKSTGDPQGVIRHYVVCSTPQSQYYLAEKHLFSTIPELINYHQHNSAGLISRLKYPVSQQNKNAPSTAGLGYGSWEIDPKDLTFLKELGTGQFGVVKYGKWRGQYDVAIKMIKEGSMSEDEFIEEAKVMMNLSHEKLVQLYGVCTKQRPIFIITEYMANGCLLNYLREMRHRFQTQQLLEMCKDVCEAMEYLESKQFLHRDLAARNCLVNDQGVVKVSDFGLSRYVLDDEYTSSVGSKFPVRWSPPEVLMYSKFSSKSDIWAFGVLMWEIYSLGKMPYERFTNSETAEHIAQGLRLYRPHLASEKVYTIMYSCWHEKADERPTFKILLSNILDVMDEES

Regarding `COc1cc(C(O)(c2cccc(C(F)(F)F)c2)C(F)(F)F)ccc1-c1nc([C@@H]2CC[C@H]3CCC(=O)N3C2)n2ccnc(N)c12` (single isomer, unassigned) [Example 10], the concentration for half-maximal inhibition (IC50) (usually the concentration at which inhibition is half-maximal) turned out to be 496 nM in assay [1] and 2160 nM in assay [2].
On the same counts, the results for `COc1cc(C(O)(c2cccc(C(F)(F)F)c2)C(F)(F)F)ccc1-c1nc([C@@H]2CC[C@H]3CCC(=O)N3C2)n2ccnc(N)c12` (single isomer, unassigned) [Example 11] are 1.8 nM and 5340 nM.
In the case of `C[C@](O)(c1ccccc1)c1ccc(-c2nc([C@@H]3CC[C@H]4CCC(=O)N4C3)n3ccnc(N)c23)cc1` [Example 1, (6R,8aS)-6-(8-amino-1-(4-((S)-1-hydroxy-1-phenylethyl)phenyl)imidazo[1,5-a]pyrazin-3-yl)hexahydroindolizin-3(2H)-one], the IC50 in assay [1] worked out at 65.2 nM; in assay [2] (Homo sapiens, HeLa), 3340 nM.
Taken in the same sequence, the figures for `C[C@@](O)(c1ccccc1)c1ccc(-c2nc([C@@H]3CC[C@H]4CCC(=O)N4C3)n3ccnc(N)c23)cc1` [Example 2, (6R,8aS)-6-(8-amino-1-(4-((R)-1-hydroxy-1-phenylethyl)phenyl)imidazo[1,5-a]pyrazin-3-yl)hexahydroindolizin-3(2H)-one] were 1.6 nM and 6350 nM.
Taken in the same sequence, the figures for `C[C@@](O)(c1ccc(-c2nc([C@@H]3CC[C@H]4CCC(=O)N4C3)n3ccnc(N)c23)cc1)c1cccc(C(F)(F)F)c1` [Example 3, (6R,8aS)-6-(8-amino-1-(4-((R)-1-hydroxy-1-(3-(trifluoromethyl)phenyl)ethyl)phenyl)imidazo[1,5-a]pyrazin-3-yl)hexahydroindolizin-3(2H)-one] were 884 nM and 405 nM.
On the same counts, the results for `C[C@](O)(c1ccc(-c2nc([C@@H]3CC[C@H]4CCC(=O)N4C3)n3ccnc(N)c23)cc1)c1cccc(C(F)(F)F)c1` [Example 4, (6R,8aS)-6-(8-amino-1-(4-((S)-1-hydroxy-1-(3-(trifluoromethyl)phenyl)ethyl)phenyl)imidazo[1,5-a]pyrazin-3-yl)hexahydroindolizin-3(2H)-one] are 0.62 nM and 3480 nM.
Regarding `C[C@](O)(c1ccc(-c2nc([C@@H]3CC[C@H]4CCC(=O)N4C3)n3c(Cl)cnc(N)c23)cc1)c1cccc(C(F)(F)F)c1` [Example 5, (6R,8aS)-6-(8-amino-5-chloro-1-(4-((S)-1-hydroxy-1-(3-(trifluoromethyl)phenyl)ethyl)phenyl)imidazo[1,5-a]pyrazin-3-yl)hexahydroindolizin-3(2H)-one], the IC50 in assay [1] is 377 nM; in assay [2] (Homo sapiens, HeLa), 553 nM.
On the same counts, the results for `C[C@@](O)(c1ccc(-c2nc([C@@H]3CC[C@H]4CCC(=O)N4C3)n3c(Cl)cnc(N)c23)cc1)c1cccc(C(F)(F)F)c1` [Example 6, (6R,8aS)-6-(8-amino-5-chloro-1-(4-((R)-1-hydroxy-1-(3-(trifluoromethyl)phenyl)ethyl)phenyl)imidazo[1,5-a]pyrazin-3-yl)hexahydroindolizin-3(2H)-one] are 0.76 nM and 1730 nM.
On the same counts, the results for `CC1(C)C[C@@H]2CC[C@@H](c3nc(-c4ccc([C@@](C)(O)c5cccc(C(F)(F)F)c5)cc4)c4c(N)nccn34)CN2C1=O` [Example 7, (6R,8aS)-6-(8-amino-1-(4-((R)-1-hydroxy-1-(3-(trifluoromethyl)phenyl)ethyl)phenyl)imidazo[1,5-a]pyrazin-3-yl)-2,2-dimethylhexahydroindolizin-3(2H)-one] are 0.82 nM and 2790 nM.
In the case of `CC1OC(=O)N2C[C@H](c3nc(-c4ccc([C@@](C)(O)c5cccc(C(F)(F)F)c5)cc4)c4c(N)nccn34)OC[C@@H]12` (stereo partly drawn) [Example 8, (6R,8aS)-6-(8-amino-1-(4-((R)-1-hydroxy-1-(3-(trifluoromethyl)phenyl)ethyl)phenyl)imidazo[1,5-a]pyrazin-3-yl)-1-methyltetrahydrooxazolo[4,3-c][14]oxazin-3(1H)-one], the results for the IC50 in assay [1] and in assay [2] were 20.6 nM and 5080 nM, respectively.
`C[C@@H]1OC(=O)N2C[C@H](c3nc(-c4ccc([C@@](C)(O)c5cccc(C(F)(F)F)c5)cc4)c4c(N)nccn34)OC[C@@H]12` [Example 9, (6R,8aS)-6-(8-amino-1-(4-((R)-1-hydroxy-1-(3-(trifluoromethyl)phenyl)ethyl)phenyl)imidazo[1,5-a]pyrazin-3-yl)-1-methyltetrahydrooxazolo[4,3-c][1,4]oxazin-3(1H)-one]: the half-inhibitory concentration (IC50) amounted to 13 nM in assay [1] and 5540 nM in assay [2] (Homo sapiens, HeLa).
On the same counts, the results for `Nc1nccn2c([C@@H]3CC[C@H]4CCC(=O)N4C3)nc(-c3ccc(C(O)(c4ccccc4)C(F)(F)F)cc3)c12` (stereo partly drawn) [Example 12, (6R,8aS)-6-(8-amino-1-(4-(2,2,2-trifluoro-1-hydroxy-1-phenethyl)phenyl)imidazo[1,5-a]pyrazin-3-yl)hexahydroindolizin-3(2H)-one] are 3.4 nM and 1240 nM.
On the same counts, the results for `CC(O)(c1ccc(-c2nc([C@@H]3CC[C@H]4CCC(=O)N4C3)n3ccnc(N)c23)cc1)c1cccc(C(F)(F)F)c1` (stereo partly drawn) [Example 13, (6R,8aS)-6-(8-amino-1-(4-(1-hydroxy-1-(3-(trifluoromethyl)phenyl)ethyl)phenyl)imidazo[1,5-a]pyrazin-3-yl)hexahydroindolizin-3(2H)-one] are 1.7 nM and 873 nM.
Taken in the same sequence, the figures for `CC(C)C(C)(O)c1ccc(-c2nc([C@@H]3CC[C@H]4CCC(=O)N4C3)n3ccnc(N)c23)cc1` (stereo partly drawn) [Example 14, (6R,8aS)-6-{8-amino-1-[4-(1-hydroxy-1,2-dimethylpropyl)phenyl]imidazo[1,5-a]pyrazin-3-yl}hexahydroindolizin-3(2H)-one] were 256 nM and 6950 nM.
Take `CC(O)(c1ccc(-c2nc([C@@H]3CC[C@H]4CCC(=O)N4C3)n3ccnc(N)c23)cc1)c1ccc(C(F)(F)F)cc1` (stereo partly drawn) [Example 15, (6R,8aS)-6-[8-amino-1-(4-{1-hydroxy-1-[4-(trifluoromethyl)phenyl]ethyl}phenyl)imidazo[1,5-a]pyrazin-3-yl]hexahydroindolizin-3(2H)-one]: the IC50 amounted to 388 nM in assay [1] and 1780 nM in assay [2] (Homo sapiens, HeLa).
As for `CC(O)(c1ccc(-c2nc([C@@H]3CC[C@H]4CCC(=O)N4C3)n3ccnc(N)c23)cc1)c1cccc(F)c1` (stereo partly drawn) [Example 16, (6R,8aS)-6-(8-amino-1-{4-[1-(3-fluorophenyl)-1-hydroxyethyl]phenyl}imidazo[1,5-a]pyrazin-3-yl)hexahydroindolizin-3(2H)-one], the IC50 in assay [1] was determined as 7.3 nM; in assay [2] (Homo sapiens, HeLa), 2440 nM.
For `CC(O)(c1ccc(-c2nc([C@@H]3CC[C@H]4CCC(=O)N4C3)n3ccnc(N)c23)cc1)c1ccccn1` (stereo partly drawn) [Example 17, (6R,8aS)-6-{8-amino-1-[4-(1-hydroxy-1-pyridin-2-ylethyl)phenyl]imidazo[1,5-a]pyrazin-3-yl}hexahydroindolizin-3(2H)-one], the IC50 in assay [1] stood at 324 nM; in assay [2] (Homo sapiens, HeLa), 5720 nM.
Take `CC(O)(c1ccccc1)c1ccc(-c2nc([C@@H]3CC[C@H]4CCC(=O)N4C3)n3ccnc(N)c23)cc1` (stereo partly drawn) [Example 23, (6R,8aS)-6-{8-amino-1-[4-(1-hydroxy-1-phenylethyl)phenyl]imidazol[1,5-a]pyrazin-3-yl}hexahydroindolizin-3(2H)-one]: the IC50 in assay [1] was 3.5 nM.
Still for that read-out and setting: the result for `Nc1nccn2c([C@@H]3CC[C@H]4CCC(=O)N4C3)nc(-c3ccc(C(O)(c4ccc(C(F)(F)F)cc4)C(F)(F)F)cc3)c12` (stereo partly drawn) [Example 28, (6R,8aS)-6-[8-amino-1-(4-{2,2,2-trifluoro-1-hydroxy-1-[4-(trifluoromethyl)phenyl]ethyl}phenyl)imidazo [1,5-a]pyrazin-3-yl]hexahydroindolizin-3(2H)-one] reads 792 nM; that for `Nc1nccn2c([C@@H]3CC[C@H]4CCC(=O)N4C3)nc(-c3ccc(C(O)(c4ccc(F)cc4)C(F)(F)F)cc3)c12` (stereo partly drawn) [Example 32, (6R,8aS)-6-(8-amino-1-{4-[2,2,2-trifluoro-1-(4-fluorophenyl)-1-hydroxyethyl]phenyl}imidazo[1,5-a]pyrazin-3-yl)hexahydroindolizin-3(2H)-one], 161 nM.
